Active and inactive are the calls of the source. The rule behind the calls is not given here. Where a SMILES comes first, the peptide text is derived from it. [ ]: non-standard residue; d: D form. dHyp = O=C(O)[C@H]1C[C@H](O)CN1
Assays:
[1] = (§1) AUC in rat at 5 mg/kg, po; type: ADME, organism-based, Plasma; set-up: dose 5 mg/kg, route oral; settings: plasma
[2] = Half life in rat at 0.5 mg/kg, iv; type: ADME, organism-based; set-up: dose 0.5 mg/kg, route intravenous; settings: in vivo
[3] = Half life in rat at 5 mg/kg, po; type: ADME, organism-based; set-up: dose 5 mg/kg, route oral; settings: in vivo
[4] = Clearance in rat at 0.5 mg/kg, iv; type: ADME, organism-based; set-up: dose 0.5 mg/kg, route intravenous; settings: in vivo
Mus musculus [5] = experiment: Antiarrhythmic effect in calcium chloride-induced CD1 mouse arrhythmia model assessed as gap-junction intracellular communication re-establishment-mediated prolongation of time to onset of cardiac conduction block at 1 nmol/kg, iv relative to control; type: functional, Heart
[6] = (§2) Oral bioavailability in rat at 5 mg/kg; type: ADME, organism-based; settings: in vivo
[7] = Cmax in rat at 5 mg/kg, po; type: ADME, organism-based; set-up: dose 5 mg/kg, route oral; settings: in vivo
[8] = Tmax in rat at 5 mg/kg, po; type: ADME, organism-based; set-up: dose 5 mg/kg, route oral; settings: in vivo
Mus musculus [9] = experiment: Antiarrhythmic effect in calcium chloride-induced CD1 mouse arrhythmia model assessed as gap-junction intracellular communication re-establishment-mediated prolongation of time to onset of cardiac conduction block at 10 pmol/kg, iv relative to control; type: functional, Heart
[10] = Volume of distribution at steady state in rat at 0.5 mg/kg, iv; type: ADME, organism-based; set-up: dose 0.5 mg/kg, route intravenous; settings: in vivo, read-out: Vdss
Cardiac atrium = experiment: Prevention of metabolic stress-induced conduction velocity slowing in Sprague-Dawley rat atrium at 10 uM by microelectrode based assay; type: functional, tissue-based
Mus musculus [11] = experiment: Antiarrhythmic effect in calcium chloride-induced CD1 mouse arrhythmia model assessed as gap-junction intracellular communication re-establishment-mediated prolongation of time to onset of cardiac conduction block at 100 pmol/kg, iv relative to control; type: functional, Heart
Mus musculus [12] = experiment: Antiarrhythmic effect in calcium chloride-induced CD1 mouse arrhythmia model assessed as gap-junction intracellular communication re-establishment-mediated prolongation of time to onset of cardiac conduction block at 1 pmol/kg, iv relative to control; type: functional, Heart
Mus musculus [13] = experiment: Antiarrhythmic effect in calcium chloride-induced po dosed CD1 mouse arrhythmia model assessed as gap-junction intracellular communication re-establishment-mediated prolongation of time to onset of cardiac conduction block relative to control; type: functional, Heart
Cytochrome P450 2D6 = Cytochrome P450 2D6 (Homo sapiens, UniProt P10635); experiment: Inhibition of CYP2D6 at 3 uM; type: ADME
C6 [14] = experiment: Reduction of simulated ischemia-induced calcein uptake in rat C6 cells; type: functional, cell-based
C6 [15] = experiment: Reduction of simulated ischemia-induced cell swelling in rat C6 cells; type: functional, cell-based
Cytochrome P450 3A4 = Cytochrome P450 3A4 (Homo sapiens, UniProt P08684); experiment: Inhibition of CYP3A4 at 3 uM; type: ADME
Cytochrome P450 2C9 = Cytochrome P450 2C9 (Homo sapiens, UniProt P11712); experiment: Inhibition of CYP2C9 at 3 uM; type: ADME
[16] = molecular target: Voltage-gated inwardly rectifying potassium channel KCNH2 (Homo sapiens, UniProt Q12809); experiment: Inhibition of human ERG
[17] = Oral bioavailability in dog; type: ADME, organism-based, Canis lupus familiaris; settings: in vivo
Rattus norvegicus [18] = experiment: as §1; type: ADME, organism-based, Plasma; set-up: dose 5 mg/kg, route oral; settings: in vivo
Rattus norvegicus [19] = experiment: as §2; type: ADME, organism-based; settings: in vivo
Mus musculus [20] = experiment: Antiarrhythmic effect in calcium chloride-induced CD1 mouse arrhythmia model assessed as gap-junction intracellular communication re-establishment-mediated prolongation of time to onset of cardiac conduction block at 10 mg/kg, po relative to control; type: functional, organism-based; set-up: dose 10 mg/kg; settings: Heart

Chain of Voltage-gated inwardly rectifying potassium channel KCNH2 (Q12809 whole entry): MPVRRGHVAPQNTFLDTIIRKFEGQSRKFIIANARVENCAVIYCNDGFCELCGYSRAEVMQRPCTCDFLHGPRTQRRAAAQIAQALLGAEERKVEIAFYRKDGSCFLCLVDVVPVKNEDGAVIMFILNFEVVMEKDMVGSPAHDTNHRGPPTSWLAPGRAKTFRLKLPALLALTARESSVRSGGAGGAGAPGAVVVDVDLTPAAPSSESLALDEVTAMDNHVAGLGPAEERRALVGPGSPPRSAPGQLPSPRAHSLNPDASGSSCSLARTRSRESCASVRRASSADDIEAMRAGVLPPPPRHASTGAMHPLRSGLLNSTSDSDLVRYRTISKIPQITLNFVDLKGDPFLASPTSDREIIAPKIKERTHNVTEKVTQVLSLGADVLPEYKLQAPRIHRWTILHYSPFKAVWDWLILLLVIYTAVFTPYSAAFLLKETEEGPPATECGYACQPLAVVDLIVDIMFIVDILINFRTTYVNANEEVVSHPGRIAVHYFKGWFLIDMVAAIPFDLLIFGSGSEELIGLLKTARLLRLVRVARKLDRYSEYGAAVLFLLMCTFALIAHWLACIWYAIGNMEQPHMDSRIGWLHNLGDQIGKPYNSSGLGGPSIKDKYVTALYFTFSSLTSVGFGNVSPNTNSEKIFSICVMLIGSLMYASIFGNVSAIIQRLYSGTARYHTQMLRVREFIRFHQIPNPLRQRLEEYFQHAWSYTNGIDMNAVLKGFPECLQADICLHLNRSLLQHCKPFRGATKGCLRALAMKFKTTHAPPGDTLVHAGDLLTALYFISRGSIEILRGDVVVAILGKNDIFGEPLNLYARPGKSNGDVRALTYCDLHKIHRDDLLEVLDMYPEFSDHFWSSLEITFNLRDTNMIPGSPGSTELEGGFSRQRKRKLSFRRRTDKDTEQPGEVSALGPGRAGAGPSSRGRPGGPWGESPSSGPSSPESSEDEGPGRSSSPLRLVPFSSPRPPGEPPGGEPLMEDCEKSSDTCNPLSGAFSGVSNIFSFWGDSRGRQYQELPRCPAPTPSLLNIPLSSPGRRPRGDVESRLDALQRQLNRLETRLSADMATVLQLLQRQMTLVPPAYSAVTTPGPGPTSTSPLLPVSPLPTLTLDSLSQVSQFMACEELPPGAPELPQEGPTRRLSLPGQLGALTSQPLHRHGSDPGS
Chain of Cytochrome P450 3A4 (P08684 whole entry): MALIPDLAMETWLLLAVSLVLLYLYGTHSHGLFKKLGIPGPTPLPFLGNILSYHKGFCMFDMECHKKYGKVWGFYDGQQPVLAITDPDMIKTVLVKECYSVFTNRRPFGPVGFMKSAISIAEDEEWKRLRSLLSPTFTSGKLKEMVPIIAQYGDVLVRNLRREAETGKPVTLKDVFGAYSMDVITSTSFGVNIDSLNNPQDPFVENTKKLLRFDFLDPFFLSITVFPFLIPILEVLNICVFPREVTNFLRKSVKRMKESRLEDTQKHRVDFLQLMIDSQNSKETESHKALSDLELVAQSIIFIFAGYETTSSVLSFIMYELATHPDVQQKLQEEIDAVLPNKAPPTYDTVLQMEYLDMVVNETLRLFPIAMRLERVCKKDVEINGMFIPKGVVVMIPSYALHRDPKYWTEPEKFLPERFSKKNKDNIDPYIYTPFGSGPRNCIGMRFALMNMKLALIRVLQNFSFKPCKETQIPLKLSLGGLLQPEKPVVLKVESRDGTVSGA
Chain of Cytochrome P450 2D6 (P10635 whole entry): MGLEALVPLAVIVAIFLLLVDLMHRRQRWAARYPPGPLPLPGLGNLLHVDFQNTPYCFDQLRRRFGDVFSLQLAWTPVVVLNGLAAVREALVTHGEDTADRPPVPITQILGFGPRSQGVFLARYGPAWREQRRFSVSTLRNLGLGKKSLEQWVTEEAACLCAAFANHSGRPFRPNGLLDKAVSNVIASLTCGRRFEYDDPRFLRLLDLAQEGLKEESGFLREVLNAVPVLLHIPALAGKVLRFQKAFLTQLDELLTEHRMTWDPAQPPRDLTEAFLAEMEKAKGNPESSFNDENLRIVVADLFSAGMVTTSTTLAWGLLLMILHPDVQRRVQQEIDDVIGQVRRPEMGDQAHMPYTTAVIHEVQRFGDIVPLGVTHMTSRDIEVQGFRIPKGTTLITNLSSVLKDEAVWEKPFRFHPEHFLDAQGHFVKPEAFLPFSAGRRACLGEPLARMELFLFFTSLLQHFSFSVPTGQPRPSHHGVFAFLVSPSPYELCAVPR
Chain of Cytochrome P450 2C9 (P11712 whole entry): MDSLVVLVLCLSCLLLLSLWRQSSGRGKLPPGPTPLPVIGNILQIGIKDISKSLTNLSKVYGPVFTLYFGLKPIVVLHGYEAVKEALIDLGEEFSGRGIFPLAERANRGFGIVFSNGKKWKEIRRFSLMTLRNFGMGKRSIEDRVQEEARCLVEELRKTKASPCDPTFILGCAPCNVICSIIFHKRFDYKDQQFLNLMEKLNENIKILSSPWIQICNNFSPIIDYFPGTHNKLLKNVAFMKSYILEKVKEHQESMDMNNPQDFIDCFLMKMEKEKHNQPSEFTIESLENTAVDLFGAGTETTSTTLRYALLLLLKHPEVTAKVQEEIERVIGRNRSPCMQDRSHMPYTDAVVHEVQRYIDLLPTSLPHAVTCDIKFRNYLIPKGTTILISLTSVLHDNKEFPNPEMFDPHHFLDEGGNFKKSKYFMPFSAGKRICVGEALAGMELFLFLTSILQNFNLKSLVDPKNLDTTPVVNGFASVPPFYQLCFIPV

| half-life [2] [min] | half-life [3] [min] | Cmax [7] [ng/mL] | Tmax [8] [min] | Vd [10] [L/kg] | Compound | Activity (Mus musculus [5]) [%] | Activity (Mus musculus [9]) [%] | Activity (Cardiac atrium) | Activity (Mus musculus [11]) [%] | Activity (Mus musculus [12]) [%] | also measured |
| --- | --- | --- | --- | --- | --- | --- | --- | --- | --- | --- | --- |
| 18 | 90 | 28 | 45 | 0.4 | COc1ccc(C(=O)NCC(=O)NCCCC[C@@H](N)CC(=O)O)cc1 | 164 | 133 | Active | 128 | 220 | AUC [1]: 71 ng·h/mL; clearance [4]: 31 mL/min/kg; bioavailability [6]: 2% |
| – | – | – | – | – | CC(=O)N[C@@H](C)C(=O)NCC(=O)N[C@@H](CC(N)=O)C(=O)N[C@@H](Cc1ccc(O)cc1)C(N)=O (Ac-AGNY-NH2) | 136 | 157 | – | 205 | 228 | – |
| 48 | 114 | 105 | 30 | 0.61 | Cl.NCC(=O)N1C[C@H](NC(=O)c2ccccc2)C[C@H]1C(=O)O | 173 | 207 | Active | 148 | 162 | Activity (Mus musculus [13]): 200%; AUC [1]: 360 ng·h/mL; Activity (Cytochrome P450 2D6): Not Active; clearance [4]: 22 mL/min/kg; Activity (C6 [14]): Dose-dependent effect; Activity (C6 [15]): Active; bioavailability [6]: 9%; Activity (Cytochrome P450 3A4): Not Active; Activity (Cytochrome P450 2C9): Not Active; Activity [16]: Not Active; bioavailability [17]: 21% |
| – | – | – | – | – | N[C@H](CCCCNC(=O)CNC(=O)c1ccc([N+](=O)[O-])cc1)CC(=O)O | 201 | 206 | – | 197 | 124 | – |
| 18 | 30 | 31.5 | 24 | 0.9 | NC(=O)C[C@H](NC(=O)CO)C(=O)N[C@@H](Cc1ccc(O)cc1)C(N)=O | 187 | 232 | Active | 203 | 188 | AUC (Rattus norvegicus [18]): 36 ng·h/mL; F (Rattus norvegicus [19]): 0.7% |
| – | – | – | – | – | CC(=O)N[C@H](Cc1ccc(O)cc1)C(=O)N1CCC[C@@H]1C(=O)N1C[C@@H](O)C[C@@H]1C(=O)NCC(=O)N[C@H](C)C(=O)NCC(N)=O [ROTIGAPTIDE] (Ac-[dY][dP][dHyp]G[dA]G-NH2) | 156 | 207 | Active | 152 | 199 | Activity (Mus musculus [20]): Active; Activity (C6 [14]): Dose-dependent effect |
| – | – | – | – | – | NCC(=O)NCCCC[C@@H](NC(=O)c1ccc([N+](=O)[O-])cc1)C(=O)O | 158 | 177 | – | 151 | 192 | – |

From ChEMBL document CHEMBL1140950, “Discovery of (2S,4R)-1-(2-aminoacetyl)-4-benzamidopyrrolidine-2-carboxylic acid hydrochloride (GAP-134)13, an orally active small molecule gap-junction modifier for the treatment of atrial fibrillation” (J Med Chem, 2009)
